Laboratory results: patent US20260007681A1, “INDOLE DERIVATIVES AS ESTROGEN RECEPTOR DEGRADERS” (REGENTS OF THE UNIVERSITY OF MICHIGAN, priority 2022, published 2026)

Biological target: ER (Homo sapiens (Human), UniProt P03372)
Assay: Western blot analysis (Compounds B1-B278)
Assay type: cell-based
Details: ER degradation by traditional Western blot; DC50 classes
Procedure, shortened: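 Relative target-protein levels come from densitometry of immunoblots, normalized to GAPDH. Lysates from treated cells were prepared in RIPA buffer (pH 7.6) containing protease inhibitors, and equal protein amounts, checked by BCA, were separated on 10% gels and blotted onto PVDF.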

ER, sequence (P03372 whole entry): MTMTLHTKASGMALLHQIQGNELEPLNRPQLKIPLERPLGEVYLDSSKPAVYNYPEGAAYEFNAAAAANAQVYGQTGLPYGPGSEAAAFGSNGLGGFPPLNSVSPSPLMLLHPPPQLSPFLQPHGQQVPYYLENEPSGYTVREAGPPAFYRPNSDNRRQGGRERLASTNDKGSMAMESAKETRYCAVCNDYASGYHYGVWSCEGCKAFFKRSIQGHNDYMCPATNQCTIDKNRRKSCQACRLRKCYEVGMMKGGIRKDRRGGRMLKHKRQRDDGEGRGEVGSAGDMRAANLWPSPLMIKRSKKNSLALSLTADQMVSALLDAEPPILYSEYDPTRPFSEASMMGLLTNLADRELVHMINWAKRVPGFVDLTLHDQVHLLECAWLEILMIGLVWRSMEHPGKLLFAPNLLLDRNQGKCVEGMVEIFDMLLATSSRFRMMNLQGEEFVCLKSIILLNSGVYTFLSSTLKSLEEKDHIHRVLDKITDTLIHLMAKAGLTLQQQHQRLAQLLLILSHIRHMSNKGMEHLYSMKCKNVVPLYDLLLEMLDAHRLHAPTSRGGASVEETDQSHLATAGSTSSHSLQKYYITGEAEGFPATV

`C[C@@H]1Cc2c([nH]c3ccccc23)[C@@H](c2c(F)cc(N3CCC(CN4CCC(C(=O)N5Cc6cc7c(cc6C5)C(=O)N(C5CCC(=O)NC5=O)C7=O)CC4)C3)cc2F)N1CC(F)F` (stereo partly drawn) [Compound B188, 6-(1-((1-(4-((1R,3R)-2-(2,2-difluoroethyl)-3-methyl-2,3,4,9-tetrahydro-1H-pyrido[3,4-b]indol-1-yl)-3,5-difluorophenyl)pyrrolidin-3-yl)methyl)piperidine-4-carbonyl)-2-(2,6-dioxopiperidin-3-yl)-6,7-dihydropyrrolo[3,4-f]isoindole-1,3(2H,5H)-dione] was tested. Which “Traditional Western Degradation Potency” value did it give?
The value was “A (“A”: <10 nM)”.

How did the “Traditional Western Degradation Potency” value turn out when `C[C@@H]1Cc2c([nH]c3ccccc23)[C@@H](c2c(F)cc(N3CCCC(CN4CCC(C(=O)N5Cc6cc7c(cc6C5)C(=O)N(C5CCC(=O)NC5=O)C7=O)CC4)C3)cc2F)N1CC(F)F` (stereo partly drawn) [Compound B189, 6-(1-((1-(4-((1R,3R)-2-(2,2-difluoroethyl)-3-methyl-2,3,4,9-tetrahydro-1H-pyrido[3,4-b]indol-1-yl)-3,5-difluorophenyl)piperidin-3-yl)methyl)piperidine-4-carbonyl)-2-(2,6-dioxopiperidin-3-yl)-6,7-dihydropyrrolo[3,4-f]isoindole-1,3(2H,5H)-dione] was run?
The value was “B (“B”: 10-100 nM)”.

With `C[C@@H]1Cc2c([nH]c3ccccc23)[C@@H](c2c(F)cc(N3CCCC(CN4CCC(N5Cc6cc7c(cc6C5)C(=O)N(C5CCC(=O)NC5=O)C7=O)CC4)C3)cc2F)N1CC(F)F` (stereo partly drawn) [Compound B190, 6-(1-((1-(4-((1R,3R)-2-(2,2-difluoroethyl)-3-methyl-2,3,4,9-tetrahydro-1H-pyrido[3,4-b]indol-1-yl)-3,5-difluorophenyl)piperidin-3-yl)methyl)piperidin-4-yl)-2-(2,6-dioxopiperidin-3-yl)-6,7-dihydropyrrolo[3,4-f]isoindole-1,3(2H,5H)-dione] as the compound, how does the “Traditional Western Degradation Potency” value read?
The value was “B (“B”: 10-100 nM)”.

With `C[C@@H]1Cc2c([nH]c3ccccc23)[C@@H](c2c(F)cc(N3CC4(CCN4CC(=O)N4Cc5cc6c(cc5C4)C(=O)N(C4CCC(=O)NC4=O)C6=O)C3)cc2F)N1CC(F)F` (stereo partly drawn) [Compound B191, 6-(2-(6-(4-((1R,3R)-2-(2,2-difluoroethyl)-3-methyl-2,3,4,9-tetrahydro-1H-pyrido[3,4-b]indol-1-yl)-3,5-difluorophenyl)-1,6-diazaspiro[3.3]heptan-1-yl)acetyl)-2-(2,6-dioxopiperidin-3-yl)-6,7-dihydropyrrolo[3,4-f]isoindole-1,3(2H,5H)-dione] as the compound, how does the “Traditional Western Degradation Potency” value read?
The value was “C (“C”: >100 nM)”.

How did the “Traditional Western Degradation Potency” value turn out when `C[C@@H]1Cc2c([nH]c3ccccc23)[C@@H](c2c(F)cc(N3CC4(CCN4CC(=O)N4Cc5cc6c(cc5C4)C(=O)N(C4CCC(=O)NC4=O)C6)C3)cc2F)N1CC(F)F` (stereo partly drawn) [Compound B192, 3-(6-(2-(6-(4-((1R,3R)-2-(2,2-difluoroethyl)-3-methyl-2,3,4,9-tetrahydro-1H-pyrido[3,4-b]indol-1-yl)-3,5-difluorophenyl)-1,6-diazaspiro[3.3]heptan-1-yl)acetyl)-1-oxo-3,5,6,7-tetrahydropyrrolo[3,4-f]isoindol-2(1H)-yl)piperidine-2,6-dione] was run?
The value was “C (“C”: >100 nM)”.

Which “Traditional Western Degradation Potency” value does the source give for `C[C@@H]1Cc2c([nH]c3ccccc23)[C@@H](c2c(F)cc(N3CCC4(CCN(CC(=O)N5Cc6cc7c(cc6C5)C(=O)N(C5CCC(=O)NC5=O)C7=O)C4)CC3)cc2F)N1CC(F)F` (stereo partly drawn) [Compound B193, 6-(2-(8-(4-((1R,3R)-2-(2,2-difluoroethyl)-3-methyl-2,3,4,9-tetrahydro-1H-pyrido[3,4-b]indol-1-yl)-3,5-difluorophenyl)-2,8-diazaspiro[4.5]decan-2-yl)acetyl)-2-(2,6-dioxopiperidin-3-yl)-6,7-dihydropyrrolo[3,4-f]isoindole-1,3(2H,5H)-dione] here?
Its value is “A (“A”: <10 nM)”.

For `C[C@@H]1Cc2c([nH]c3ccccc23)[C@@H](c2c(F)cc(N3CCC4(CCN(CC(=O)N5Cc6cc7c(cc6C5)C(=O)N(C5CCC(=O)NC5=O)C7)C4)CC3)cc2F)N1CC(F)F` (stereo partly drawn) [Compound B194, 3-(6-(2-(8-(4-((1R,3R)-2-(2,2-difluoroethyl)-3-methyl-2,3,4,9-tetrahydro-1H-pyrido[3,4-b]indol-1-yl)-3,5-difluorophenyl)-2,8-diazaspiro[4.5]decan-2-yl)acetyl)-1-oxo-3,5,6,7-tetrahydropyrrolo[3,4-f]isoindol-2(1H)-yl)piperidine-2,6-dione], which “Traditional Western Degradation Potency” value is on record?
Its value is “A (“A”: <10 nM)”.

`C[C@@H]1Cc2c([nH]c3ccccc23)[C@@H](c2c(F)cc(N3CCC4(CCN(C(=O)CN5Cc6cc7c(cc6C5)C(=O)N(C5CCC(=O)NC5=O)C7)C4)CC3)cc2F)N1CC(F)F` (stereo partly drawn) [Compound B195, 3-(6-(2-(8-(4-((1R,3R)-2-(2,2-difluoroethyl)-3-methyl-2,3,4,9-tetrahydro-1H-pyrido[3,4-b]indol-1-yl)-3,5-difluorophenyl)-2,8-diazaspiro[4.5]decan-2-yl)-2-oxoethyl)-1-oxo-3,5,6,7-tetrahydropyrrolo[3,4-f]isoindol-2(1H)-yl)piperidine-2,6-dione] was tested. Which “Traditional Western Degradation Potency” value did it give?
Its value is “A (“A”: <10 nM)”.

Which “Traditional Western Degradation Potency” value does the source give for `C[C@@H]1Cc2c([nH]c3ccccc23)[C@@H](c2c(F)cc(N3CC[C@@H](CN4CCC(C(=O)N5Cc6cc7c(cc6C5)C(=O)N(C5CCC(=O)NC5=O)C7)CC4)C3)cc2F)N1CC(F)F` (stereo partly drawn) [Compound B196, 3-(6-(1-(((S)-1-(4-((1R,3R)-2-(2,2-difluoroethyl)-3-methyl-2,3,4,9-tetrahydro-1H-pyrido[3,4-b]indol-1-yl)-3,5-difluorophenyl)pyrrolidin-3-yl)methyl)piperidine-4-carbonyl)-1-oxo-3,5,6,7-tetrahydropyrrolo[3,4-f]isoindol-2(1H)-yl)piperidine-2,6-dione] here?
Its value is “A (“A”: <10 nM)”.

Which “Traditional Western Degradation Potency” value does the source give for `C[C@@H]1Cc2c([nH]c3ccccc23)[C@@H](c2c(F)cc(N3CC[C@@H](CN4CCC(C(=O)N5Cc6cc7c(cc6C5)C(=O)N(C5CCC(=O)NC5=O)C7=O)CC4)C3)cc2F)N1CC(F)F` (stereo partly drawn) [Compound B197, 6-(1-(((S)-1-(4-((1R,3R)-2-(2,2-difluoroethyl)-3-methyl-2,3,4,9-tetrahydro-1H-pyrido[3,4-b]indol-1-yl)-3,5-difluorophenyl)pyrrolidin-3-yl)methyl)piperidine-4-carbonyl)-2-(2,6-dioxopiperidin-3-yl)-6,7-dihydropyrrolo[3,4-f]isoindole-1,3(2H,5H)-dione] here?
Its value is “A (“A”: <10 nM)”.

`C[C@@H]1Cc2c([nH]c3ccccc23)[C@@H](c2c(F)cc(N3CCC4(CCN(C(=O)CN5Cc6cc7c(cc6C5)C(=O)N(C5CCC(=O)NC5=O)C7=O)CC4)CC3)cc2F)N1CC(F)(F)F` (stereo partly drawn) [Compound B199, 6-(2-(9-(3,5-difluoro-4-((1R,3R)-3-methyl-2-(2,2,2-trifluoroethyl)-2,3,4,9-tetrahydro-1H-pyrido[3,4-b]indol-1-yl)phenyl)-3,9-diazaspiro[5.5]undecan-3-yl)-2-oxoethyl)-2-(2,6-dioxopiperidin-3-yl)-6,7-dihydropyrrolo[3,4-f]isoindole-1,3(2H,5H)-dione] was tested. Which “Traditional Western Degradation Potency” value did it give?
The value was “B (“B”: 10-100 nM)”.

`C[C@@H]1Cc2c([nH]c3ccccc23)[C@@H](c2c(F)cc(N3CCC4(CC3)CN(C(=O)CN3Cc5cc6c(cc5C3)C(=O)N(C3CCC(=O)NC3=O)C6=O)C4)cc2F)N1CC(F)(F)F` (stereo partly drawn) [Compound B200, 6-(2-(7-(3,5-difluoro-4-((1R,3R)-3-methyl-2-(2,2,2-trifluoroethyl)-2,3,4,9-tetrahydro-1H-pyrido[3,4-b]indol-1-yl)phenyl)-2,7-diazaspiro[3.5]nonan-2-yl)-2-oxoethyl)-2-(2,6-dioxopiperidin-3-yl)-6,7-dihydropyrrolo[3,4-f]isoindole-1,3(2H,5H)-dione] was tested. Which “Traditional Western Degradation Potency” value did it give?
The value was “B (“B”: 10-100 nM)”.

For `C[C@@H]1Cc2c([nH]c3ccccc23)[C@@H](c2c(F)cc(N3CCC(C(=O)N4CCC(N5Cc6cc7c(cc6C5)C(=O)N(C5CCC(=O)NC5=O)C7=O)CC4)CC3)cc2F)N1CC(F)(F)F` (stereo partly drawn) [Compound B201, 6-(1-(1-(3,5-difluoro-4-((1R,3R)-3-methyl-2-(2,2,2-trifluoroethyl)-2,3,4,9-tetrahydro-1H-pyrido[3,4-b]indol-1-yl)phenyl)piperidine-4-carbonyl)piperidin-4-yl)-2-(2,6-dioxopiperidin-3-yl)-6,7-dihydropyrrolo[3,4-f]isoindole-1,3(2H,5H)-dione], which “Traditional Western Degradation Potency” value is on record?
Its value is “B (“B”: 10-100 nM)”.

`C[C@@H]1Cc2c([nH]c3ccccc23)[C@@H](c2c(F)cc(N3CC(C(=O)N4CC(N5Cc6cc7c(cc6C5)C(=O)N(C5CCC(=O)NC5=O)C7=O)C4)C3)cc2F)N1CC(F)F` (stereo partly drawn) [Compound B202, 6-(1-(1-(4-((1R,3R)-2-(2,2-difluoroethyl)-3-methyl-2,3,4,9-tetrahydro-1H-pyrido[3,4-b]indol-1-yl)-3,5-difluorophenyl)azetidine-3-carbonyl)azetidin-3-yl)-2-(2,6-dioxopiperidin-3-yl)-6,7-dihydropyrrolo[3,4-f]isoindole-1,3(2H,5H)-dione] was tested. Which “Traditional Western Degradation Potency” value did it give?
The value was “B (“B”: 10-100 nM)”.

How did the “Traditional Western Degradation Potency” value turn out when `C[C@@H]1Cc2c([nH]c3ccccc23)[C@@H](c2c(F)cc(N3CC(C(=O)N4CC(CN5Cc6cc7c(cc6C5)C(=O)N(C5CCC(=O)NC5=O)C7=O)C4)C3)cc2F)N1CC(F)F` (stereo partly drawn) [Compound B203, 6-((1-(1-(4-((1R,3R)-2-(2,2-difluoroethyl)-3-methyl-2,3,4,9-tetrahydro-1H-pyrido[3,4-b]indol-1-yl)-3,5-difluorophenyl)azetidine-3-carbonyl)azetidin-3-yl)methyl)-2-(2,6-dioxopiperidin-3-yl)-6,7-dihydropyrrolo[3,4-f]isoindole-1,3(2H,5H)-dione] was run?
Its value is “B (“B”: 10-100 nM)”.
